Usually inhibition stands for the change of the read-out against control, counted positive when it falls.

The target in this test is T1, NEK9 (Homo sapiens, UniProt Q8TD19).
T1 construct: purchased Thermo Fisher Scientific (Life Technologies) SelectScreen
As to the kind of experiment: SelectScreen Z'LYTE. It is filed as biochemical. The gist of the method: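 Percent values come from Thermo SelectScreen profiling of NU5455, combining activity and binding assays. CSF1R was run in Z'LYTE format at Km app ATP, and CAMK1 in Adapta format with ATP listed at 10.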

T1 sequence (Q8TD19 whole entry): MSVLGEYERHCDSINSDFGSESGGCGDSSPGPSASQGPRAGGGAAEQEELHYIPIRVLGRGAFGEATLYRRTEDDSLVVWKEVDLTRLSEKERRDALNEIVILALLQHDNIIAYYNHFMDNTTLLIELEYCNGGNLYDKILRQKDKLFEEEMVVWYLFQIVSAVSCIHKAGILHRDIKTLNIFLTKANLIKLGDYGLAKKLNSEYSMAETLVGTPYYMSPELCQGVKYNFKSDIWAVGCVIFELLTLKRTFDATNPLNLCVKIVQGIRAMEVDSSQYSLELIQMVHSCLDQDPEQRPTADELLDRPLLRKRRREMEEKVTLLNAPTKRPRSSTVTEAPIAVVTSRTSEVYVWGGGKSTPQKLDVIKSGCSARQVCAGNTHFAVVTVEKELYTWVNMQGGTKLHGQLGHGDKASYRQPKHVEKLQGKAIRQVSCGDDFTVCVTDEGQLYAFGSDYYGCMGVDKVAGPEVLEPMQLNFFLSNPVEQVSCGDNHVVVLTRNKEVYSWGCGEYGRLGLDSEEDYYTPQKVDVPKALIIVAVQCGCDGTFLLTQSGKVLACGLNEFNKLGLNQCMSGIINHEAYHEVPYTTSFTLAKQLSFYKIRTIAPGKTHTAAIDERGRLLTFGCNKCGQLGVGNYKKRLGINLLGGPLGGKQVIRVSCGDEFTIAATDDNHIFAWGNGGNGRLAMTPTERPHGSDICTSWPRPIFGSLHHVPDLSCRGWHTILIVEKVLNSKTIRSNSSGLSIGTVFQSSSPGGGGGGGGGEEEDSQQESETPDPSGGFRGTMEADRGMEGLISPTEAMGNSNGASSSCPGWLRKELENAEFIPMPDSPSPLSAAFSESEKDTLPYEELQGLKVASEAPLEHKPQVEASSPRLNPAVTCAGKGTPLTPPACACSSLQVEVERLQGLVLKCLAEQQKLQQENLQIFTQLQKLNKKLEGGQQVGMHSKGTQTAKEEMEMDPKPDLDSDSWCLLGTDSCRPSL

`CN(C(=O)CN1CCOCC1)c1ccc2sc3c(-c4cccc5c(=O)cc(N6CC7CCC(C6)O7)oc45)cccc3c2c1` [NU5455]: the inhibition at 1 µM is -7.2%.

The values are drawn from publication PMC6934184, “Selective DNA-PKcs inhibition extends the therapeutic index of localized radiotherapy and chemotherapy” (The Journal of Clinical Investigation, 2019).
